What was measured:
[1] = target: T1, 5-hydroxytryptamine receptor 2C (Sus scrofa, UniProt K7GSR7)
T1 sequence (K7GSR7 whole entry): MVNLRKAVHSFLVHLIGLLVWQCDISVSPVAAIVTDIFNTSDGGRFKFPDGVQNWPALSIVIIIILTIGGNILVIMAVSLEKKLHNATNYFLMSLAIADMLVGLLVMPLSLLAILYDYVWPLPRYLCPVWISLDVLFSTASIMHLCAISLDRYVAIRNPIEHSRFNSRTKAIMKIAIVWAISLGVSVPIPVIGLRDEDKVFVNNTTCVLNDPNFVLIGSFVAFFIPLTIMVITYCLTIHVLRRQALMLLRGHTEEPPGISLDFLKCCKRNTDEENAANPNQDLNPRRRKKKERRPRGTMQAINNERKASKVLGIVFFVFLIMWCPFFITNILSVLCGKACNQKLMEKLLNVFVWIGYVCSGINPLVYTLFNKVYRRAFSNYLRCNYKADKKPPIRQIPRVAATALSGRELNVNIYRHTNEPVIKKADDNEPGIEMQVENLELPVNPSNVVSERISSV

[2] = target: 5-hydroxytryptamine receptor 2A (Rattus norvegicus, UniProt P14842)
5-hydroxytryptamine receptor 2A, sequence (P14842 whole entry): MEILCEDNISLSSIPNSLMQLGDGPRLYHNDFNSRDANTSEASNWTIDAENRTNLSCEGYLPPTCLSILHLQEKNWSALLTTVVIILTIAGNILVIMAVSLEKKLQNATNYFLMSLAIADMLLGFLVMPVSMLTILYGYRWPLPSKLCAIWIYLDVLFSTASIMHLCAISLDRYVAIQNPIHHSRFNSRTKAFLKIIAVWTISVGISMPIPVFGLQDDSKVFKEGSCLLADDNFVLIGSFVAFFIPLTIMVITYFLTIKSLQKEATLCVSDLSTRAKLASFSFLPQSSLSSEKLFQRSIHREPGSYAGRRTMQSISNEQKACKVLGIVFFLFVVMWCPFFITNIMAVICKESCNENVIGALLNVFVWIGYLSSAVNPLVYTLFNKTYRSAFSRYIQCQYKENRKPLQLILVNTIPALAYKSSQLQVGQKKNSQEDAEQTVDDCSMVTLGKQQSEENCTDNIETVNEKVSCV

[3] = target: 5-hydroxytryptamine receptor 2B (Homo sapiens, UniProt P41595)
5-hydroxytryptamine receptor 2B, sequence (P41595 whole entry): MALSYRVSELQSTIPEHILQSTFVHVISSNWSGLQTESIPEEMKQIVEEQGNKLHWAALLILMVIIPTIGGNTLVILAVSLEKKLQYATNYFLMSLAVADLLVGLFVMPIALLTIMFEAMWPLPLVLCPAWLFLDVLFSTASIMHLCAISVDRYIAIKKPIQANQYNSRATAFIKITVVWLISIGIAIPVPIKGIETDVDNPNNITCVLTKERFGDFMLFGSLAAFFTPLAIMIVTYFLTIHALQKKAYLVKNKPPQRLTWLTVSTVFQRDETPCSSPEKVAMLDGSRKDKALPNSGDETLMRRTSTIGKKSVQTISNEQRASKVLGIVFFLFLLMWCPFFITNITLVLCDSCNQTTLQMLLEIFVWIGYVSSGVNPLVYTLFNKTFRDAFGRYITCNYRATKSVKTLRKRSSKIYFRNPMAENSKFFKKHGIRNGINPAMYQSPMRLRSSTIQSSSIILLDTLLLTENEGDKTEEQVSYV

SMILES	Ki [1] [nM]	Ki [2] [nM]	Ki [3] [nM]
COc1ccc2[nH]cc(CCNC(C)=O)c2c1	> 10000	> 10000	–
COc1ccc2cccc(CCNC(C)=O)c2c1 [S 20098]	407	> 10000	257
